Our source for the EC50 values is PubChem BioAssay AID2252 (Southern Research Specialized Biocontainment Screening …, 2010).

Each structure is given as a SMILES string. Several values for one entry are separate records, joined by “and”; a condition that tells them apart may be missing. Equal entries are not always repeated.

For this test, the system named is THP-1 viability, CellTiter-Glo luminescence, 72 h. In words: PubChem AID 2252.
As for `C=CCn1c(NS(=O)(=O)c2ccccc2)c(S(=O)(=O)c2ccc(C)cc2)c2nc3ccccc3nc21`, the EC50 is 40.9 µM. With `CC(Nc1nc(N2CCCC2)nc2ccccc12)c1ccccc1` (stereo unspecified), the EC50 is 9.31 µM. Next, `O/N=C/C1=C(Cl)c2ccccc2CC1`: < 0.1 µM; `CCc1ccc(Nc2n[n+](-c3ccccc3)c(-c3c(Cl)cccc3Cl)s2)cc1`: 3.75 µM. Next, `O=C1C(Cl)=C(NCc2cccnc2)C(=O)c2ccccc21`: 12.5 µM; `COc1cc(CNCCc2c[nH]c3ccccc23)ccc1OCc1ccc(F)cc1`: 6.34 µM.

`COc1ccc2c(C(=O)CCl)c[nH]c2c1`: the EC50 was 11.2 µM. As to `COc1ccccc1N1CCN(Cc2ccc(O)c3ncccc23)CC1`, the EC50 was 2.61 µM. Next, `[O-][n+]1c2c(c3c4non(O)c4ccc31)CCCC2`: 47.7 µM; `COc1cccc(CNC23CC4CC(CC(C4)C2)C3)c1OCc1ccccc1`: 22.3 µM; `CN1CCN(C2Cc3ccc(Cl)cc3Sc3ccc(F)cc32)CC1` (stereo unspecified): 11.6 µM.

For the molecule `Cc1c(O)cccc1C(=O)N[C@@H](CSc1ccccc1)[C@H](O)CN1C[C@H]2CCCC[C@H]2C[C@H]1C(=O)NC(C)(C)C`, the EC50 was 11.9 µM and 11.6 µM.

As for `O=C1c2cccc3cccc(c23)C(=O)C1(O)O`, the EC50 is 30.2 µM.

With `COc1cc([N+](=O)[O-])cc(/C=N/NC(=O)CSc2ccccn2)c1O`, the EC50 is 34.7 µM.

`O=C(Nc1ccc(Cl)cc1)N1CCOC12CCC1(CC2)OCCO1`: the EC50 was < 0.1 µM. In the case of `O=C(CCN1CCN(c2ccccc2)CC1)c1ccc(Br)cc1`, the EC50 was 38.2 µM. Regarding `O=C(O)CC/C(=C\c1ccccc1[N+](=O)[O-])c1nc2ccccc2s1`, the EC50 is < 0.1 µM.

`COc1ccc2[nH]c3c(C)c4ccncc4c(C)c3c2c1`: the EC50 was 1.45 µM. Next, `OCCNCc1cc(Br)ccc1OCc1ccc(Cl)cc1`: 15.9 µM; `CC(=O)CC1OC(=O)C(Br)=C1NCc1ccccc1` (stereo unspecified): 9.9 µM; `CC1=C([N+](=O)[O-])C(c2ccccc2)C2=C(N1)c1ccccc1C2=O` (stereo unspecified): 1.01 µM. Next, `COC(=O)CC1C(=O)NCCN1C(=O)CSc1nc2ccc([N+](=O)[O-])cc2s1` (stereo unspecified): < 0.1 µM; `CCCCOc1ccc(CN=C(N)N)cc1Cl`: 10.1 µM; `Cc1[nH]nc2c1C(C1CC=CCC1)C(C#N)=C(N)O2` (stereo unspecified): 13.9 µM. Take `CN1CCN(C2=Cc3cc(Cl)ccc3Sc3cc(F)ccc32)CC1`: the half-maximal effective concentration (EC50) is 13.4 µM. Regarding `COc1ccc(CCN2CCC(Nc3nc4ccccc4n3Cc3ccc(F)cc3)CC2)cc1`, the EC50 is 3.8 µM. Turning to `NC(N)=N/N=C/c1ccc(OCc2ccc(Cl)cc2)cc1`, the EC50 is 5.57 µM. Next, `O=C(N/N=C/c1cc(O)ccc1Br)c1cccnc1`: 2.86 µM. `O=C(C[n+]1cc(-c2ccc(Cl)c(Cl)c2)n2c1CCC2)N1c2ccccc2Sc2ccccc21`: the EC50 was 10.3 µM. As to `CN(C)CC/C=C1\c2ccccc2Sc2cc(F)c(Cl)cc21`, the EC50 is 10.8 µM. On to `O=S1(=O)Nc2c(ccc3cccnc23)-c2ccccc21`, for which the EC50 is 1.2 µM. On to `COc1ccc(/C=C/c2cc(-c3ccc(C)cc3)o[n+]2C)cc1`, for which the 50% effective concentration (EC50) was 1.27 µM. In the case of `Cc1nonc1C(=O)N/N=C/c1ccc(O)cc1O`, the EC50 was 8.05 µM. As to `CCCCCc1ccc(OCCCC[n+]2cccc(C)c2)c(CCCCC)c1`, the concentration giving a half-maximal response (EC50) was 1.05 µM.

As to `CSc1nnc(-c2cccc(NC(=S)NN)c2)o1`, the half-maximal effective concentration (EC50) is < 0.1 µM. As for `O=C(Nc1cccc(C2=NCCN2)c1)Nc1cccc(C2=NCCN2)c1`, the EC50 was 13.2 µM. In the case of `O=C(/C=C/c1ccc(Cl)cc1)NCCCn1ccnc1`, the EC50 is < 0.1 µM. In the case of `Cc1ccc(O)c(Nc2c3ccccc3nc3ccccc23)c1`, the EC50 is 14.2 µM.

`CC1Cc2ccccc2N1S(=O)(=O)c1cccc(C(=O)N2CC(=O)Nc3ccccc32)c1` (stereo unspecified): the EC50 is 46.1 µM. With `CO[C@H]1C=CO[C@@]2(C)Oc3c(C)c(O)c4c(O)c(c(C=NN5CCN(C)CC5)c(O)c4c3C2=O)NC(=O)C(C)=CC=C[C@H](C)[C@H](O)[C@@H](C)[C@@H](O)[C@@H](C)[C@H](OC(C)=O)[C@@H]1C`, the EC50 was 42.4 µM. Turning to `CCCCOc1ccc(NC2=NC3(CCCC3)N=C(N)N2)cc1`, the EC50 was 17.4 µM.

On to `O=C(CSc1ccccn1)N/N=C/c1cc([N+](=O)[O-])ccc1O`, for which the EC50 was 21.5 µM.

Consider `COC(=O)C1=C(C)N(Cc2ccccc2)C(=NCc2cccc(C(F)(F)F)c2)N[C@H]1c1cccc(F)c1`, for which the EC50 is 5.3 µM. For `CN1CCN(C2Cc3cc(Cl)ccc3Sc3cc(F)ccc32)CC1` (stereo unspecified), the EC50 was 8.2 µM. As to `O=C(Cn1cc[n+](CC(=O)c2ccc(Cl)cc2Cl)c1)c1ccc(Cl)cc1Cl`, the EC50 is 16.1 µM. For the molecule `Cc1[nH]c2ccccc2c1/C=C/c1nc2ccccc2c(=O)[nH]1`, the EC50 is 14 µM. Take `O=C(N/N=C/c1ccc([N+](=O)[O-])s1)c1ccccc1Br`: the EC50 is 15.2 µM. Regarding `CN1CCN(C(c2ccc(Cl)cc2)c2cc(Cl)c3cccnc3c2O)CC1` (stereo unspecified), the EC50 was 3.11 µM. Then `CN(C)CCCNc1c2ccccc2nc2ccccc12`, with 3.46 µM; and `Cc1ccccc1Nc1cc(C)c2c(O)cccc2n1`, with 5.03 µM; and `CNCC[C@H](Oc1cccc2ccccc12)c1cccs1`, with 18.3 µM. Regarding `CC(C)(c1ccccc1)c1ccc(OCCCN2CCNCC2)cc1`, the EC50 is 15.3 µM. Next, `CCc1cccc(NC(=O)CSC2=NS(=O)(=O)c3ccccc32)c1`: 15.6 µM; `C#CCOCCOCCOCCNc1nc(N2CCN(C(=O)CCCCCCCCCCNC(=O)Cn3cc(CCCCCN)nn3)CC2)nc(N2CCN(C(=O)CCCCCCCCCCNC(=O)[C@@H]([C@H](C)O)n3cc(C)nn3)CC2)n1`: < 0.1 µM; `O=C(N=Nc1c(O)[nH]c2ccccc12)c1cc(-c2cccs2)[nH]n1`: < 0.1 µM. For the molecule `C#CCOCCOCCOCCNc1nc(N2CCN(C(=O)CCCCCCCCCCNC(=O)[C@H](CCCCN)n3cc(CCO)nn3)CC2)nc(N2CCN(C(=O)CCCCCCCCCCNC(=O)[C@H](CCCCN)n3cc(C[C@@H](C)CC)nn3)CC2)n1`, the EC50 is 12.9 µM. In the case of `CCCCC(=O)NNC(=S)NC(=O)CCC`, the EC50 was 46 µM. Next, `CN(C)CCNC(=O)c1ccc(COc2ccc(Cl)cc2Cl)cc1`: 13.8 µM; `CCCCCCCCCCCCCCCC[n+]1ccc(C(N)=O)cc1`: 0.68 µM; `Cc1cc(C)n(-c2nc(NCCN(C)C)c3c4c(sc3n2)CCCC4)n1`: 4.39 µM. Then `COc1ccc2nc(Nc3ccccc3)sc2c1`, with < 0.1 µM; and `O=[N+]([O-])c1cc(O)c2ncccc2c1`, with 5.78 µM; and `CCc1cccc2c1Sc1ccccc1CC2N1CCNCC1` (stereo unspecified), with 9.72 µM. Regarding `Clc1ccc2[nH]c3c(c2c1)CCc1cn[nH]c1-3`, the 50% effective concentration (EC50) is 31.3 µM. Regarding `CCCOc1ccc(C(=O)NNC(=S)NC(=O)c2ccco2)cc1`, the EC50 was 16.8 µM.

With `C[C@H]1O[C@@H](n2cc(F)c(=O)[nH]c2=O)[C@H](O)[C@@H]1O`, the EC50 was 26.7 µM. Next, `CCCCCSc1cc(OC)c(CCNC)cc1OC`: 13.9 µM. Take `Nc1c(Cl)ncnc1N/N=C/c1ccccn1`: the half-maximal effective concentration (EC50) is 0.36 µM.

Consider `COc1ccc(/C=N/Nc2cc(C)nc3ccccc23)cc1`, for which the EC50 is 7.03 µM. As for `CC1(C)N=C(N)N=C(N)N1c1ccc(Oc2ccc(Cl)cc2)c(Cl)c1`, the EC50 is 2.45 µM. Turning to `N#C/C(=N\Nc1ccc([N+](=O)[O-])cc1)C(N)=S`, the EC50 was 29 µM.
